# Test results: ChEMBL document CHEMBL1201861, “Genomics of Drug Sensitity in Cancer screening data, Wellcome Trust Sanger Institute”
# Experiments:
# Assay in all cases: cells
# COLO-829 = assay type: functional, cell-based, Homo sapiens; details: Homo sapiens, COLO-829
# Description: SANGER: Inhibition of human COLO-829 cell growth in a cell viability assay.
# DB = assay type: functional, cell-based, Homo sapiens; details: Homo sapiens, DB
# Description: SANGER: Inhibition of human DB cell growth in a cell viability assay.
# DEL = assay type: functional, cell-based, Homo sapiens; details: Homo sapiens, DEL;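 note: growth inhibition of the human DEL cell line, read out with a cell viability assay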
# DMS-114 = assay type: functional, cell-based, Homo sapiens; details: Homo sapiens, DMS-114
# DOHH-2 = assay type: functional, cell-based, Homo sapiens; details: Homo sapiens, DOHH-2;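 note: growth inhibition of human DOHH-2 cells, read out with a cell viability assay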
# Description: SANGER: Inhibition of human DOHH-2 cell growth in a cell viability assay.
# ES3 = assay type: functional, cell-based, Homo sapiens; details: Homo sapiens, ES3;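 note: growth inhibition of ES3 cells, read out with a cell viability assay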
# Description: SANGER: Inhibition of human ES3 cell growth in a cell viability assay.
# ES4 = assay type: functional, cell-based, Homo sapiens; details: Homo sapiens, ES4;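 note: growth inhibition of human ES4 cells, read out by a cell viability assay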
# ES7 = assay type: functional, cell-based, Homo sapiens; details: Homo sapiens, ES7;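 note: growth inhibition of cultured human ES7 cells, read out as cell viability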
# Description: SANGER: Inhibition of human ES7 cell growth in a cell viability assay.
# EW-16 = assay type: functional, cell-based, Homo sapiens; details: Homo sapiens, EW-16;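 note: growth inhibition of human EW-16 cells, read out as cell viability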
# Description: SANGER: Inhibition of human EW-16 cell growth in a cell viability assay.
# HCC2218 = assay type: functional, cell-based, Homo sapiens; details: Homo sapiens, HCC2218;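 note: cell viability assay read-out, with IC50 given as the concentration that inhibits growth of the cell line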
# Description: SANGER: Inhibition of human HCC2218 cell growth in a cell viability assay.
# HEL = assay type: functional, cell-based, Homo sapiens; details: Homo sapiens, HEL;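 note: growth inhibition of HEL cells, read out with a cell viability assay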
# Description: SANGER: Inhibition of human HEL cell growth in a cell viability assay.
# HH = assay type: functional, cell-based, Homo sapiens; details: Homo sapiens, HH
# Description: SANGER: Inhibition of human HH cell growth in a cell viability assay.
# IST-MES1 = assay type: functional, cell-based, Homo sapiens; details: Homo sapiens, IST-MES1;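 note: growth inhibition of IST-MES1 cells, measured with a cell viability assay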
# Description: SANGER: Inhibition of human IST-MES1 cell growth in a cell viability assay.
# JAR = assay type: functional, cell-based, Homo sapiens; details: Homo sapiens, JAR;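 note: growth inhibition of human JAR cells determined with a cell viability assay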
# Description: SANGER: Inhibition of human JAR cell growth in a cell viability assay.
# K562 = assay type: functional, cell-based, Homo sapiens; details: Homo sapiens, K562
# K5 = assay type: functional, cell-based, Homo sapiens; details: Homo sapiens, K5
# Description: SANGER: Inhibition of human K5 cell growth in a cell viability assay.
# KE-37 = assay type: functional, cell-based, Homo sapiens; details: Homo sapiens, KE-37;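 note: growth inhibition of KE-37 cells, read out with a cell viability assay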
# Description: SANGER: Inhibition of human KE-37 cell growth in a cell viability assay.
# KG-1 = assay type: functional, cell-based, Homo sapiens; details: Homo sapiens, KG-1;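 note: growth inhibition of KG-1 cells, read out by a cell viability assay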
# Description: SANGER: Inhibition of human KG-1 cell growth in a cell viability assay.
# KGN = assay type: functional, cell-based, Homo sapiens; details: Homo sapiens, KGN;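 note: growth inhibition of KGN cells, read out with a cell viability assay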
# Description: SANGER: Inhibition of human KGN cell growth in a cell viability assay.
# KM12 = assay type: functional, cell-based, Homo sapiens; details: Homo sapiens, KM12;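 note: KM12 cell growth inhibition, read out with a cell viability assay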
# Description: SANGER: Inhibition of human KM12 cell growth in a cell viability assay.
# KY821 = assay type: functional, cell-based, Homo sapiens; details: Homo sapiens, KY821;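 note: growth inhibition of human KY821 cells, read out by a cell viability assay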
# Description: SANGER: Inhibition of human KY821 cell growth in a cell viability assay.
# LAMA-84 = assay type: functional, cell-based, Homo sapiens; details: Homo sapiens, LAMA-84;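 note: growth inhibition of LAMA-84 cells, read out with a cell viability assay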
# LAN-6 = assay type: functional, cell-based, Homo sapiens; details: Homo sapiens, LAN-6;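 note: growth inhibition of LAN-6 cells, determined with a cell viability assay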
# Description: SANGER: Inhibition of human LAN-6 cell growth in a cell viability assay.
# LB831-BLC = assay type: functional, cell-based, Homo sapiens; details: Homo sapiens, LB831-BLC;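 note: growth inhibition of LB831-BLC cells, read out with a cell viability assay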
# Description: SANGER: Inhibition of human LB831-BLC cell growth in a cell viability assay.
# LC-2-ad = assay type: functional, cell-based, Homo sapiens; details: Homo sapiens, LC-2-ad;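 note: growth inhibition of human LC-2-ad cells, read out with a cell viability assay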
# Description: SANGER: Inhibition of human LC-2-ad cell growth in a cell viability assay.
# LOX IMVI = assay type: functional, cell-based, Homo sapiens; details: Homo sapiens, LOX IMVI
# Description: SANGER: Inhibition of human LOXIMVI cell growth in a cell viability assay.
# LU-134-A = assay type: functional, cell-based, Homo sapiens; details: Homo sapiens, LU-134-A
# Description: SANGER: Inhibition of human LU-134-A cell growth in a cell viability assay.
# LU-139 = assay type: functional, cell-based, Homo sapiens; details: Homo sapiens, LU-139
# Description: SANGER: Inhibition of human LU-139 cell growth in a cell viability assay.
# MEG-01 = assay type: functional, cell-based, Homo sapiens; details: Homo sapiens, MEG-01;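 note: growth inhibition of MEG-01 cells, read out by a cell viability assay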
# Description: SANGER: Inhibition of human MEG-01 cell growth in a cell viability assay.
# MSTO-211H = assay type: functional, cell-based, Homo sapiens; details: Homo sapiens, MSTO-211H
# Description: SANGER: Inhibition of human MSTO-211H cell growth in a cell viability assay.
# MZ2-MEL = assay type: functional, cell-based, Homo sapiens; details: Homo sapiens, MZ2-MEL;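 note: growth inhibition of MZ2-MEL cells read out with a cell viability assay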
# Description: SANGER: Inhibition of human MZ2-MEL cell growth in a cell viability assay.
# Mo = assay type: functional, cell-based, Homo sapiens; details: Homo sapiens, Mo
# Description: SANGER: Inhibition of human Mo-T cell growth in a cell viability assay.
# NB69 = assay type: functional, cell-based, Homo sapiens; details: Homo sapiens, NB69;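 note: growth inhibition of NB69 cells, determined by a cell viability assay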
# Description: SANGER: Inhibition of human NB69 cell growth in a cell viability assay.
# NCI-H1963 = assay type: functional, cell-based, Homo sapiens; details: Homo sapiens, NCI-H1963;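 note: cell growth inhibition of the human line, determined with a cell viability assay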
# Description: SANGER: Inhibition of human NCI-H1963 cell growth in a cell viability assay.
# NOS-1 = assay type: functional, cell-based, Homo sapiens; details: Homo sapiens, NOS-1;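 note: growth inhibition of the human NOS-1 cell line, read out with a cell viability assay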
# Description: SANGER: Inhibition of human NOS-1 cell growth in a cell viability assay.
# NTERA-2-cl-D1 = assay type: functional, cell-based, Homo sapiens; details: Homo sapiens, NTERA-2-cl-D1;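 note: inhibition of cell growth, measured with a cell viability assay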
# Description: SANGER: Inhibition of human NTERA-S-cl-D1 cell growth in a cell viability assay.
# P30-OHK = assay type: functional, cell-based, Homo sapiens; details: Homo sapiens, P30-OHK;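 note: growth inhibition of the P30-OHK cell line, read out with a cell viability assay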
# Description: SANGER: Inhibition of human P30-OHK cell growth in a cell viability assay.
# RCC10RGB = assay type: functional, cell-based, Homo sapiens; details: Homo sapiens, RCC10RGB;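 note: growth inhibition of human RCC10RGB cells, read out by a cell viability assay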
# Description: SANGER: Inhibition of human RCC10RGB cell growth in a cell viability assay.
# RS4-11 = assay type: functional, cell-based, Homo sapiens; details: Homo sapiens, RS4-11;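 note: growth inhibition of RS4-11 cells, read out by a cell viability assay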
# Description: SANGER: Inhibition of human RS4-11 cell growth in a cell viability assay.
# SHP77 = assay type: functional, cell-based, Homo sapiens, SHP-77; details: Homo sapiens, SHP77;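 note: growth inhibition of human SHP-77 cells measured by a cell viability assay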
# SK-MEL-2 = assay type: functional, cell-based, Homo sapiens; details: Homo sapiens, SK-MEL-2;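 note: growth inhibition of human SK-MEL-2 cells measured with a cell viability assay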
# Description: SANGER: Inhibition of human SK-MEL-2 cell growth in a cell viability assay.
# BB49-HNC = assay type: functional, cell-based, Homo sapiens; details: Homo sapiens, BB49-HNC;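 note: cell viability assay read-out, reported as inhibition of BB49-HNC cell growth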
# Description: SANGER: Inhibition of human BB49-HNC cell growth in a cell viability assay.
# BB65-RCC = assay type: functional, cell-based, Homo sapiens; details: Homo sapiens, BB65-RCC;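 note: growth inhibition of the cell line, measured with a cell viability assay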
# Description: SANGER: Inhibition of human BB65-RCC cell growth in a cell viability assay.
# C8166 = assay type: functional, cell-based, Homo sapiens; details: Homo sapiens, C8166;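 note: growth inhibition of human C8166 cells measured by a cell viability assay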
# Description: SANGER: Inhibition of human C8166 cell growth in a cell viability assay.
# TE-10 = assay type: functional, cell-based, Homo sapiens; details: Homo sapiens, TE-10;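 note: growth inhibition of TE-10 cells, measured by a cell viability assay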
# Description: SANGER: Inhibition of human TE-10 cell growth in a cell viability assay.
# TE-8 = assay type: functional, cell-based, Homo sapiens; details: Homo sapiens, TE-8;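 note: growth inhibition of TE-8 cells, measured with a cell viability readout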
# Description: SANGER: Inhibition of human TE-8 cell growth in a cell viability assay.
# TGBC24TKB = assay type: functional, cell-based; details: Homo sapiens;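 note: growth inhibition of human TGBC24TKB cells, read out with a cell viability assay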
# Description: SANGER: Inhibition of human TGBC24TKB cell growth in a cell viability assay.
# VA-ES-BJ = assay type: functional, cell-based, Homo sapiens; details: Homo sapiens, VA-ES-BJ;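 note: growth inhibition of the VA-ES-BJ cell line, read out by a cell viability assay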
# Description: SANGER: Inhibition of human VA-ES-BJ cell growth in a cell viability assay.
# CGTH-W-1 = assay type: functional, cell-based, Homo sapiens; details: Homo sapiens, CGTH-W-1;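 note: growth inhibition of human CGTH-W-1 cells measured by cell viability assay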
# Description: SANGER: Inhibition of human CGTH-W-1 cell growth in a cell viability assay.
smiles,measurement,setting,value
C[C@@H](Oc1cc(-c2cnn(C3CCNCC3)c2)cnc1N)c1c(Cl)ccc(F)c1Cl [CRIZOTINIB],IC50,COLO-829,> 2 µM
same,IC50,DB,> 2 µM
same,IC50,DEL,370 nM
same,IC50,DMS-114,> 2 µM
same,IC50,DOHH-2,> 2 µM
same,IC50,ES3,> 2 µM
same,IC50,ES4,> 2 µM
same,IC50,ES7,> 2 µM
same,IC50,EW-16,> 2000 nM
same,IC50,HCC2218,> 2 µM
same,IC50,HEL,> 2 µM
same,IC50,HH,> 2 µM
same,IC50,IST-MES1,> 2 µM
same,IC50,JAR,> 2 µM
same,IC50,K562,1720 nM
same,IC50,K5,> 2 µM
same,IC50,KE-37,> 2 µM
same,IC50,KG-1,> 2 µM
same,IC50,KGN,> 2 µM
same,IC50,KM12,707 nM
same,IC50,KY821,> 2 µM
same,IC50,LAMA-84,1380 nM
same,IC50,LAN-6,> 2 µM
same,IC50,LB831-BLC,> 2000 nM
same,IC50,LC-2-ad,> 2 µM
same,IC50,LOX IMVI,> 2 µM
same,IC50,LU-134-A,> 2 µM
same,IC50,LU-139,> 2 µM
same,IC50,MEG-01,858 nM
same,IC50,MSTO-211H,> 2 µM
same,IC50,MZ2-MEL,> 2 µM
same,IC50,Mo,> 2 µM
same,IC50,NB69,> 2 µM
same,IC50,NCI-H1963,> 2 µM
same,IC50,NOS-1,> 2 µM
same,IC50,NTERA-2-cl-D1,> 2 µM
same,IC50,P30-OHK,> 2 µM
same,IC50,RCC10RGB,> 2 µM
same,IC50,RS4-11,> 2 µM
same,IC50,SHP77,> 2 µM
same,IC50,SK-MEL-2,> 2 µM
same,IC50,BB49-HNC,> 2 µM
same,IC50,BB65-RCC,> 2 µM
same,IC50,C8166,> 2 µM
same,IC50,TE-10,> 2 µM
same,IC50,TE-8,> 2 µM
same,IC50,TGBC24TKB,> 2 µM
same,IC50,VA-ES-BJ,> 2 µM
same,IC50,CGTH-W-1,> 2 µM
C=CC(=O)N1CCCC(Nc2nc(Nc3ccc(N(C)C(=O)CC)cc3)nc3[nH]cnc23)C1 (stereo not drawn),IC50,COLO-829,> 10.2 µM
same,IC50,DB,> 10.2 µM
same,IC50,DEL,> 10200 nM
same,IC50,DMS-114,> 10.2 µM
same,IC50,DOHH-2,> 10.2 µM
same,IC50,ES3,> 10.2 µM
same,IC50,ES4,> 10.2 µM
same,IC50,ES7,> 10.2 µM
same,IC50,EW-16,2590 nM
same,IC50,HCC2218,> 10.2 µM
same,IC50,HEL,> 10.2 µM
same,IC50,HH,> 10.2 µM
same,IC50,IST-MES1,> 10.2 µM
same,IC50,JAR,> 10.2 µM
same,IC50,K562,> 10200 nM
same,IC50,K5,> 10.2 µM
same,IC50,KE-37,> 10.2 µM
same,IC50,KG-1,> 10.2 µM
same,IC50,KGN,> 10.2 µM
same,IC50,KM12,> 10200 nM
same,IC50,KY821,> 10.2 µM
same,IC50,LAMA-84,> 10200 nM
same,IC50,LAN-6,> 10.2 µM
same,IC50,LB831-BLC,2950 nM
same,IC50,LC-2-ad,7.27 µM
same,IC50,LOX IMVI,> 10.2 µM
same,IC50,LU-134-A,> 10.2 µM
same,IC50,LU-139,> 10.2 µM
same,IC50,MEG-01,> 10200 nM
same,IC50,MSTO-211H,> 10.2 µM
same,IC50,MZ2-MEL,> 10.2 µM
same,IC50,Mo,> 10.2 µM
same,IC50,NB69,> 10.2 µM
same,IC50,NCI-H1963,> 10.2 µM
same,IC50,NOS-1,> 10.2 µM
same,IC50,NTERA-2-cl-D1,> 10.2 µM
same,IC50,P30-OHK,> 10.2 µM
same,IC50,RCC10RGB,> 10.2 µM
same,IC50,RS4-11,> 10.2 µM
same,IC50,SHP77,> 10.2 µM
same,IC50,SK-MEL-2,> 10.2 µM
same,IC50,BB49-HNC,> 10.2 µM
same,IC50,BB65-RCC,> 10.2 µM
same,IC50,C8166,> 10.2 µM
same,IC50,TE-10,> 10.2 µM
same,IC50,TE-8,> 10.2 µM
same,IC50,TGBC24TKB,> 10.2 µM
same,IC50,VA-ES-BJ,> 10.2 µM
same,IC50,CGTH-W-1,> 10.2 µM
